ChEMBL document CHEMBL1201862, “PubChem BioAssay data set” (2004)
The source made the active and inactive calls. For most assays here, no stated cut-off is given here; in the data, actives have a measured IC50 and inactives only a lower limit.

Legend:
[1] = system: HEK293; experiment: cells; settings: Homo sapiens;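 further: cells exposed to compound for 14 hours overnight before viability readout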
[2] = target: Nucleotide-binding oligomerization domain-containing protein 1 (Homo sapiens, UniProt Q9Y239); experiment: blockers of NOD1 pathway activity – revised, SAR follow-up (AID 2333); format: functional
Nucleotide-binding oligomerization domain-containing protein 1, sequence (Q9Y239 whole entry, the tested form may be a part): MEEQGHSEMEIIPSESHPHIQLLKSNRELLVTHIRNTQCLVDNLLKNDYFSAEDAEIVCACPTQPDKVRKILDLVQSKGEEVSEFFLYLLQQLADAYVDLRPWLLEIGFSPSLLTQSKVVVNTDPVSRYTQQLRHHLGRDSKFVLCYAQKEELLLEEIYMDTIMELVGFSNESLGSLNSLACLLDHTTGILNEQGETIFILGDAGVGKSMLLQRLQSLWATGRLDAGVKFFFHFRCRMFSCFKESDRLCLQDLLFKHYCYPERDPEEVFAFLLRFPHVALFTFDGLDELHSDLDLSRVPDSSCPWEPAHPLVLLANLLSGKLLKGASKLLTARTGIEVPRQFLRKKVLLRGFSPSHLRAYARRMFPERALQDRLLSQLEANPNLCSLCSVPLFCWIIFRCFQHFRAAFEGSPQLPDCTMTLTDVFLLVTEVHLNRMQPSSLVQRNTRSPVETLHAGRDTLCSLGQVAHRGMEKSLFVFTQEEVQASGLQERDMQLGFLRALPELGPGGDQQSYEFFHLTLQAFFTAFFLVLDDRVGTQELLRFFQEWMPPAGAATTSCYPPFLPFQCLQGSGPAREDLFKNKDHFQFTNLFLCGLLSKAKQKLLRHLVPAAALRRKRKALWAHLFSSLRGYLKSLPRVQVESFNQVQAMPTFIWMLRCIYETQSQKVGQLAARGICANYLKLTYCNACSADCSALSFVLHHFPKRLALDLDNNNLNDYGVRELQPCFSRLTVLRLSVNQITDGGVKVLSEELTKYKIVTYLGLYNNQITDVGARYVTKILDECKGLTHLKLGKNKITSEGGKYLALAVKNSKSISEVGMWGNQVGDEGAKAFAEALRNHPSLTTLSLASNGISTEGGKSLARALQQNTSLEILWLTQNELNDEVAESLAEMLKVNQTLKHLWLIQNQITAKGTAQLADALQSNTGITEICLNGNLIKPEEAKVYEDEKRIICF

[3] = target: Tumor necrosis factor (Homo sapiens, UniProt P01375); experiment: analog potency on TNFa NF-kB signaling – cell-based, revised, SAR follow-up (AID 2337); format: functional
Tumor necrosis factor, sequence (P01375 whole entry): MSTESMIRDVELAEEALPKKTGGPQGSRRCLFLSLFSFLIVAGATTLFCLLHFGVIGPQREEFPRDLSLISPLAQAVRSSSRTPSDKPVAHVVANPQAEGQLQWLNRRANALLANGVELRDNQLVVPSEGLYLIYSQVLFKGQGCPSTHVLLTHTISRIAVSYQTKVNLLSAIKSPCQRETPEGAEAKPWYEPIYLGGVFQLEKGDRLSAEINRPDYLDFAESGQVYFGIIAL

[4] = target: Acyl-homoserine lactone acylase PvdQ (Pseudomonas aeruginosa (strain LESB58), UniProt Q9I194); experiment: PvdQ acylase enzyme activity blockers – biochemical, fluorescence, plate reader and imaging, cherry-picks, dose response (AID 493231)
Acyl-homoserine lactone acylase PvdQ, sequence (Q9I194 24-193 limits assumed): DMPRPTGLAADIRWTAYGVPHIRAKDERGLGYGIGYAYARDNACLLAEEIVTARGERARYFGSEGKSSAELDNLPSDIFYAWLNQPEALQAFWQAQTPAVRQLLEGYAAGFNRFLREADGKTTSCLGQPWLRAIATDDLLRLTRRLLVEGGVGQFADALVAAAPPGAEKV
Acyl-homoserine lactone acylase PvdQ, sequence (Q9I194 217-762 limits assumed): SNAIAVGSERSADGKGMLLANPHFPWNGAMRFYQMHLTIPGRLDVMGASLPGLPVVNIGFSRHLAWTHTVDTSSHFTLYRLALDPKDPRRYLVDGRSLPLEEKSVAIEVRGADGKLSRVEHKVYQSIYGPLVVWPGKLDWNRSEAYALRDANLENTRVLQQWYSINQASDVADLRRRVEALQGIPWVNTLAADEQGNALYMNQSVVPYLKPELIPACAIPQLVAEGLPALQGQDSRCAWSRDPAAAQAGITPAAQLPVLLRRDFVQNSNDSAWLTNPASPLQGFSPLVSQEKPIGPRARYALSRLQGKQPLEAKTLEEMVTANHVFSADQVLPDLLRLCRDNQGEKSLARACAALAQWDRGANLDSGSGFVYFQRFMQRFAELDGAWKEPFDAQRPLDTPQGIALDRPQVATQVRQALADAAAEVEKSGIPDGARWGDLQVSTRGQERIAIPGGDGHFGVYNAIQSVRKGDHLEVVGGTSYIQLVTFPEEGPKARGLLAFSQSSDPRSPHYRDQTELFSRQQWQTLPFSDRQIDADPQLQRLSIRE

[5] = target: Dual specificity protein phosphatase 3 (Homo sapiens, UniProt P51452); experiment: inhibition constants for human DUSP3 – biochemical, colorimetric, SAR follow-up (AID 2004)
Dual specificity protein phosphatase 3, sequence (P51452 whole entry): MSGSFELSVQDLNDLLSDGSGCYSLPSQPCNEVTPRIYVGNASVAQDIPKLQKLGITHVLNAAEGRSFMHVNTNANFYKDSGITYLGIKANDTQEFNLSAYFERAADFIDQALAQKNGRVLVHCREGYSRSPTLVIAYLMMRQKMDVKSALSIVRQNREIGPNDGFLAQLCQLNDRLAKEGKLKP

With `O=C(Nc1ccc(Cl)c([N+](=O)[O-])c1)c1ccc2ccccc2c1O` the IC50 [1] was 4040 nM (active), the IC50 [2] was 692 nM (active) and the IC50 [3] was 870 nM (active).
For `N#CC(c1ccc(Cl)cc1)c1cccc(Cl)n1` (stereo not given), the AC50 [4] was 500 nM (active).
With `COc1ccccc1CC(=N)NOC(=O)c1ccco1` the Ki [5] was 48400 nM (inactive).
